Several values for one entry are separate records, joined by “and”; a condition that tells them apart may be missing. Identical values can stand only once.
Assays:
[1] = Particle size and polydispersity index (PDI) of nanolipid particles, dynamic light scattering; format: physicochemical; settings: LNP formulation prepared from the named cationic lipid, 25° C
Experimental: The particle size and polydispersity index (PDI) were determined by dynamic light scattering method using a Malvern laser particle size analyzer. 10 μL of liposome solution was diluted to 1 mL with RNase-free deionized water and added to a sample pool. Each sample was measured three times. The measurement conditions were: 90° scattering angle, 25° C.

[2] = Encapsulation rate, drug loading concentration and total RNA concentration detection (RiboGreen); format: physicochemical; settings: for Drug loading concentration / Encapsulation rate / Total RNA concentration: LNP formulation of the named lipid; for encapsulation rate higher than that of ALC-0315 / encapsulation rate higher than that of HHMA / encapsulation rate higher than that of SM-102 / encapsulation rate higher than that of YK-009 / encapsulation rate higher than that of compound 21 / encapsulation rate higher than that of compound 23: difference of rates
[3] = test system: female BALB/C mice; experiment: Mouse in vivo imaging of Fluc-mRNA LNP formulations; set-up: average radiation intensity (mRNA expression): unit not given here; settings: for average radiation intensity (mRNA expression): 10 μg Fluc-mRNA LNP intramuscularly
Procedure, shortened: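 Female BALB/C mice (4–6 weeks, 17–19 g) received LNP carrying 10 μg Fluc-mRNA intramuscularly. Imaging substrate given intraperitoneally at 6 h, 24 h, 48 h and 7 d; after 5 min free movement, average radiance read by IVIS Spectrum imaging.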

CCCCCCCCC(CCCCCCCC)COC(=O)CCCCCN(CCCCCC(=O)OCC(CCCCCCCC)CCCCCCCC)CCN(C)CCO [YK-209, bis(2-octyldecyl)-6,6′-((2-(2-hydroxyethyl(methyl)amino)ethyl)azadialkyl)dihexanoate]
PDI [1]: 26.6%
Particle size [1]: 226 nm
drug loading concentration, times that of ALC-0315 [2]: 1.60 times
drug loading concentration, times that of HHMA [2]: 1.36 times
drug loading concentration, times that of SM-102 [2]: 1.64 times
drug loading concentration, times that of YK-009 [2]: 1.55 times
drug loading concentration, times that of compound 21 [2]: 1.85 times
drug loading concentration, times that of compound 23 [2]: 2.02 times and 2 times
total RNA concentration, times that of ALC-0315 [2]: 1.17 times
total RNA concentration, times that of HHMA [2]: 1.15 times
total RNA concentration, times that of SM-102 [2]: 1.23 times
total RNA concentration, times that of YK-009 [2]: 1.12 times
total RNA concentration, times that of compound 21 [2]: 1.41 times
total RNA concentration, times that of compound 23 [2]: 1.34 times
Drug loading concentration [2]: 41.76 µg/mL
Encapsulation rate [2]: 96.2%
Total RNA concentration [2]: 43.42 µg/mL
encapsulation rate higher than that of ALC-0315 [2]: 33.40%
encapsulation rate higher than that of HHMA [2]: 35.70%
encapsulation rate higher than that of SM-102 [2]: 33.90%
encapsulation rate higher than that of YK-009 [2]: 33.20%
encapsulation rate higher than that of compound 21 [2]: 38.40%
encapsulation rate higher than that of compound 23 [2]: 41%
average radiation intensity, times that of ALC-0315 ([3]; 6 h): 3.00 times
average radiation intensity, times that of HHMA ([3]; 6 h): 3.95 times
average radiation intensity, times that of SM-102 ([3]; 6 h): 3.72 times
average radiation intensity, times that of compound 21 ([3]; 6 h): 4.20 times
average radiation intensity, times that of compound 23 ([3]; 6 h): 4.25 times
mRNA expression level, times that of YK-204 ([3]; 6 h): 71.62 times
mRNA expression level, times that of YK-223 ([3]; 6 h): 243.77 times
average radiation intensity (mRNA expression) ([3]; 6 h): 2524250
expression level, times that of YK-215 ([3]; 6 hours): 49.92 times
expression level, times that of YK-217 ([3]; 6 hours): 102.67 times
average radiation intensity, times that of ALC-0315 ([3]; 24 h): 10.25 times
average radiation intensity, times that of HHMA ([3]; 24 h): 17.05 times
average radiation intensity, times that of SM-102 ([3]; 24 h): 16.14 times
average radiation intensity, times that of compound 21 ([3]; 24 h): 17.31 times
average radiation intensity, times that of compound 23 ([3]; 24 h): 16.86 times
mRNA expression level, times that of YK-204 ([3]; 24 h): 357.40 times
mRNA expression level, times that of YK-223 ([3]; 24 h): 1046.60 times
average radiation intensity (mRNA expression) ([3]; 24 h): 1869220
expression level, times that of YK-215 ([3]; 24 hours): 274.28 times
expression level, times that of YK-217 ([3]; 24 hours): 705.37 times
average radiation intensity, times that of ALC-0315 ([3]; 48 h): 16.50 times
average radiation intensity, times that of HHMA ([3]; 48 h): 21.36 times
average radiation intensity, times that of SM-102 ([3]; 48 h): 20.59 times
average radiation intensity, times that of compound 21 ([3]; 48 h): 20.95 times
average radiation intensity, times that of compound 23 ([3]; 48 h): 19.61 times
mRNA expression level, times that of YK-204 ([3]; 48 h): 257.82 times
mRNA expression level, times that of YK-223 ([3]; 48 h): 927.85 times
average radiation intensity (mRNA expression) ([3]; 48 h): 629080
expression level, times that of YK-215 ([3]; 48 hours): 172.82 times
expression level, times that of YK-217 ([3]; 48 hours): 614.34 times
average radiation intensity, times that of ALC-0315 ([3]; 7 d): 4.00 times
average radiation intensity, times that of HHMA ([3]; 7 d): 4.96 times
average radiation intensity, times that of SM-102 ([3]; 7 d): 4.47 times
average radiation intensity, times that of compound 21 ([3]; 7 d): 4.32 times
average radiation intensity, times that of compound 23 ([3]; 7 d): 4.52 times
expression level, times that of YK-215 ([3]; 7 d): 25.84 times
expression level, times that of YK-217 ([3]; 7 d): 50.40 times
mRNA expression level, times that of YK-204 ([3]; 7 d): 34.96 times
mRNA expression level, times that of YK-223 ([3]; 7 d): 59.91 times
average radiation intensity (mRNA expression) ([3]; 7 d): 26361

CCCCCCCCCCCOC(=O)CCCCCN(CCCCCCCC(=O)OCC(CCCCCCCC)CCCCCCCC)CCN(C)CCO [YK-202]
PDI [1]: 23.4%
Particle size [1]: 173 nm
drug loading concentration, times that of ALC-0315 [2]: 1.42 times
drug loading concentration, times that of HHMA [2]: 1.21 times
drug loading concentration, times that of SM-102 [2]: 1.46 times
drug loading concentration, times that of YK-009 [2]: 1.38 times
drug loading concentration, times that of compound 21 [2]: 1.64 times
drug loading concentration, times that of compound 23 [2]: 1.79 times
total RNA concentration, times that of ALC-0315 [2]: 1.16 times
total RNA concentration, times that of HHMA [2]: 1.14 times
total RNA concentration, times that of SM-102 [2]: 1.22 times
total RNA concentration, times that of YK-009 [2]: 1.11 times
total RNA concentration, times that of compound 21 [2]: 1.40 times
total RNA concentration, times that of compound 23 [2]: 1.32 times
Drug loading concentration [2]: 37.08 µg/mL
Encapsulation rate [2]: 86.3%
Total RNA concentration [2]: 42.98 µg/mL
encapsulation rate higher than that of ALC-0315 [2]: 23.50%
encapsulation rate higher than that of HHMA [2]: 25.80%
encapsulation rate higher than that of SM-102 [2]: 24.00%
encapsulation rate higher than that of YK-009 [2]: 23.30%
encapsulation rate higher than that of compound 21 [2]: 28.50%
encapsulation rate higher than that of compound 23 [2]: 31.10%
average radiation intensity, times that of ALC-0315 ([3]; 6 h): 3.48 times
average radiation intensity, times that of HHMA ([3]; 6 h): 4.59 times
average radiation intensity, times that of SM-102 ([3]; 6 h): 4.32 times
average radiation intensity, times that of compound 21 ([3]; 6 h): 4.89 times
average radiation intensity, times that of compound 23 ([3]; 6 h): 4.94 times
mRNA expression level, times that of YK-204 ([3]; 6 h): 83.29 times
mRNA expression level, times that of YK-223 ([3]; 6 h): 283.49 times
average radiation intensity (mRNA expression) ([3]; 6 h): 2935500
expression level, times that of YK-215 ([3]; 6 hours): 58.06 times
expression level, times that of YK-217 ([3]; 6 hours): 119.40 times
average radiation intensity, times that of ALC-0315 ([3]; 24 h): 11.84 times
average radiation intensity, times that of HHMA ([3]; 24 h): 19.69 times
average radiation intensity, times that of SM-102 ([3]; 24 h): 18.64 times
average radiation intensity, times that of compound 21 ([3]; 24 h): 19.99 times
average radiation intensity, times that of compound 23 ([3]; 24 h): 19.47 times
mRNA expression level, times that of YK-204 ([3]; 24 h): 412.78 times
mRNA expression level, times that of YK-223 ([3]; 24 h): 1208.76 times
average radiation intensity (mRNA expression) ([3]; 24 h): 2158840
expression level, times that of YK-215 ([3]; 24 hours): 316.78 times
expression level, times that of YK-217 ([3]; 24 hours): 814.66 times
average radiation intensity, times that of ALC-0315 ([3]; 48 h): 19.80 times
average radiation intensity, times that of HHMA ([3]; 48 h): 25.64 times
average radiation intensity, times that of SM-102 ([3]; 48 h): 24.71 times
average radiation intensity, times that of compound 21 ([3]; 48 h): 25.15 times
average radiation intensity, times that of compound 23 ([3]; 48 h): 23.54 times
mRNA expression level, times that of YK-204 ([3]; 48 h): 309.43 times
mRNA expression level, times that of YK-223 ([3]; 48 h): 1113.57 times
average radiation intensity (mRNA expression) ([3]; 48 h): 755000
expression level, times that of YK-215 ([3]; 48 hours): 207.42 times
expression level, times that of YK-217 ([3]; 48 hours): 737.30 times
average radiation intensity, times that of ALC-0315 ([3]; 7 d): 5.09 times
average radiation intensity, times that of HHMA ([3]; 7 d): 6.31 times
average radiation intensity, times that of SM-102 ([3]; 7 d): 5.68 times
average radiation intensity, times that of compound 21 ([3]; 7 d): 5.49 times
average radiation intensity, times that of compound 23 ([3]; 7 d): 5.75 times
expression level, times that of YK-215 ([3]; 7 d): 32.87 times
expression level, times that of YK-217 ([3]; 7 d): 64.10 times
mRNA expression level, times that of YK-204 ([3]; 7 d): 44.46 times
mRNA expression level, times that of YK-223 ([3]; 7 d): 76.19 times
average radiation intensity (mRNA expression) ([3]; 7 d): 33524
mRNA expression level in mice can reach, times that of SM-102 ([3]; time point not stated): 24 times

— patent US20260007601A1, “IONIZABLE CATIONIC LIPID COMPOUND AND COMPOSITION FOR DELIVERING NUCLEIC ACID AND USE THEREOF” (BEIJING YOUCAREKECHUANG PHARMACEUTICAL TECHNOLOGY CO., LTD., priority 2023, published 2026)
